Results: patent publication US6410567B1, “Pesticide containing a photosensitizer and an attractant” (priority 1996, dated 2002)

Tests used:
Format in all cases: in vivo
[1] = test system: Ceratitis capitata; assay: Comparative studies on the photoinsecticidal activity of different sensitizing compounds (percent survival after irradiation); conditions: for Percent survival, 0 h after 1 h irradiation / Percent survival, 1 h after 1 h irradiation / Percent survival, 24 h after 1 h irradiation: 6 μmoles/ml photosensitizer for 24 h, 1220 μE s^−1 m^−2 for 1 h; for Percent survival, 0 h after 1 h irradiation: 0 h after irradiation; for Percent survival, 1 h after 1 h irradiation: 1 h after irradiation; for Percent survival, 24 h after 1 h irradiation: 24 h after irradiation; for Percent survival, pre-irradiation: Ceratitis capitata fed 24 h with sucrose solution containing 6 μmoles/ml photosensitizer, before irradiation
Protocol: 31. Comparative Studies on the Photosecticidal Activity of Different Sensitizing Compounds
Target: Ceratitis capitata
Light source: Sunlight-simulating halogen lamp
Light intensity (fluence rate): 1220 μE s^−1 m^−2
Groups of at least 20 flies were fed for 24 h with 3 ml of an aqueous solution containing sucrose (attractive) and 6 μmoles/ml of the photosensitizer. […]

[2] = test system: flies; assay: Mortality investigations: control flies given only HP without irradiation; conditions: flies fed HP in the food, no irradiation
Protocol: An appropriate number of flies (25 for each experiment) was removed from a population and starved for 48 hours. Then, depending on the individual experimental conditions, the flies were provided with food, the control animals being fed with sugar and water while the test group received hematoporphyrin (HP; shown below) which had been added to the food. The animals were then used for the individual experiments; for example, HP was extracted or the flies were irradiated, etc.
3. Mortality Investigations
Control flies and flies fed with HP were irradiated with light sources (HQIT 400W/D OSRAM) whose emitted light is similar to sunlight. The number of survivors was plotted against the irradiation time. The HP concentration, the flux rate and the exposure time (or the total light dose) were investigated as parameters in respect of their effect on the mortality.

[3] = test system: flies; assay: Effect of the attractant buminal on the intake of HP (extraction, spectrofluorimetric analysis); conditions: HP 8 μmol/ml offered for 6 h, in combination with buminal vs buminal-free food
Protocol: 19. Effect of the Attractant Buminal on the Intake and Action of HP
Groups of 10 flies each were fed for two days with an aqueous solution comprising sucrose and were then fed with compositions which contained the following ingredients:
1. HP (8 μmol/ml)+buminal (1 ml)
3. HP (8 μmol/ml)+1 ml sucrose (1.4 mg/ml)
4. HP (8 μmol/ml)+buminal (0.5 ml)+sucrose (0.5 ml)
The animals were able to take in the compositions indicated above for 6 hours. Thereafter the flies were subjected to an extraction in order to extract the HP taken in, which was quantified by a spectrofluorimetric analysis. From these experiments it is clearly evident that buminal is capable of sharply increasing the intake of HP by the flies, the flies taking in about four times the quantity of photosensitizer when the latter is offered in combination with buminal, in comparison to the buminal-free food. The addition of buminal therefore strengthens the action of HP.

CC1=C(CCC(=O)O)c2cc3[nH]c(cc4nc(cc5[nH]c(cc1n2)c(C)c5C(C)O)C(C)=C4C(C)O)c(C)c3CCC(=O)O (stereo not drawn) [I, hematoporphyrin]
Percent survival, 0 h after 1 h irradiation [1]: 60%
Percent survival, 1 h after 1 h irradiation [1]: 25%
Percent survival, 24 h after 1 h irradiation [1]: 5%
Percent survival, pre-irradiation [1]: 100%
Mortality or toxic effect without irradiation [2]: In none of the experiments was mortality or a toxic effect observed
Quantity of photosensitizer taken in with buminal in comparison to the buminal-free food [3]: about four

C[n+]1ccc(-c2c3nc(c(-c4cc[n+](C)cc4)c4ccc([nH]4)c(-c4cc[n+](C)cc4)c4nc(c(-c5ccccc5)c5ccc2[nH]5)C=C4)C=C3)cc1 [II, meso-tri(4N-methyl-pyridyl)-monophenyl-porphine]
Percent survival, 0 h after 1 h irradiation [1]: 10%
Percent survival, 1 h after 1 h irradiation [1]: 0%
Percent survival, 24 h after 1 h irradiation [1]: 0%
Percent survival, pre-irradiation [1]: 100%

O=C1OC2(c3cc(I)c(O)c(I)c3Oc3c2cc(I)c(O)c3I)c2c(Cl)c(Cl)c(Cl)c(Cl)c21 [IV, Rose bengal (tetrachloro, tetraiodo-fluorescein)]
Percent survival, 0 h after 1 h irradiation [1]: 85%
Percent survival, 1 h after 1 h irradiation [1]: 58%
Percent survival, 24 h after 1 h irradiation [1]: 30%
Percent survival, pre-irradiation [1]: 100%

Nc1c(S(=O)(=O)[O-])ccc2c1C(=O)c1ccccc1C2=O.[Na+] [V, 1-amino-anthraquinone-2-sulphonate (sodium salt)]
Percent survival, 0 h after 1 h irradiation [1]: 100%
Percent survival, 1 h after 1 h irradiation [1]: 77%
Percent survival, 24 h after 1 h irradiation [1]: 60%
Percent survival, pre-irradiation [1]: 100%

COc1ccc(NC(N)=S)cc1 [VI, 1-(4-methoxyphenyl)-2-thiourea]
Percent survival, 0 h after 1 h irradiation [1]: 100%
Percent survival, 1 h after 1 h irradiation [1]: 95%
Percent survival, 24 h after 1 h irradiation [1]: 90%
Percent survival, pre-irradiation [1]: 100%

O=C([O-])c1cccc2sc3ccccc3c(=O)c12.[Na+] [VII, thioxanthene-9-one-1-carbonate (sodium salt)]
Percent survival, 0 h after 1 h irradiation [1]: 100%
Percent survival, 1 h after 1 h irradiation [1]: 100%
Percent survival, 24 h after 1 h irradiation [1]: 90%
Percent survival, pre-irradiation [1]: 100%

Al(III)-phtalocyanine tetrasulphonate (sodium salt)
Percent survival, 0 h after 1 h irradiation [1]: 100%
Percent survival, 1 h after 1 h irradiation [1]: 95%
Percent survival, 24 h after 1 h irradiation [1]: 90%
Percent survival, pre-irradiation [1]: 100%
